Test results reported in patent US8729089B2 (Gilead Sciences, Inc., priority 2006, dated 2014).

Experiments:
[1] = tested on: HCV replicon in human hepatoma Huh-7 cell line; assay: Anti-HCV replicon assay (EC50, luciferase); format: cell-based
Method in brief: (§1)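 Cytotoxicity (CC50) measured by CellTiter-Glo and antiviral activity (EC50) by luciferase signal from lysed cells, both by luminescence. Replicon-bearing Huh-7 cells, 6000 per well, incubated 3 days at 37 °C with threefold-diluted compound (0.5% DMSO for DMSO-dissolved compounds).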

[2] = tested on: Huh-7 HCV replicon cells; assay: CC50 assay (CellTiter-Glo) in Huh-7 HCV replicon cells; format: cell-based, human; conditions: 3 days incubation, CellTiter-Glo readout
Method in brief: as §1

[3] = as above; format: cell-based, human; conditions: human, 3 days incubation, CellTiter-Glo readout
Method in brief: as §1

[4] = Huh-7 HCV replicon cells, 3 days incubation, luciferase readout

## CC(Nc1nc(NCC(F)(F)F)c2nc(-c3ccc(F)cc3)ccc2n1)c1ccc(S(N)(=O)=O)cc1 (centres unmarked) [Example 250, 4-{1-[6-(4-Fluoro-phenyl)-4-(2,2,2-trifluoro-ethylamino)-pyrido[3,2-d]pyrimidin-2-ylamino]-ethyl}-benzenesulfonamide]
[1]; [4]
  EC50: < 0.1 µM
[2]
  CC50: < 5 µM

## CC(Nc1nc(NCC(F)(F)F)c2nc(-c3ccc(F)cc3)ccc2n1)c1ccc(S(N)(=O)=O)cc1 (centres unmarked) [Example 257, 4-{1-[6-(4-Fluoro-phenyl)-4-(2,2,2-trifluoro-ethylamino)-pyrido[3,2-d]pyrimidin-2-ylamino]-ethyl}-benzenesulfonamide]
[1]; [4]
  EC50: < 0.1 µM
[2]
  CC50: 5 to 25 µM

## CCNc1nc(NCc2ccc(S(N)(=O)=O)cc2)nc2ccc(-c3ccc(F)cc3)nc12 [Example 297, 4-{[4-Ethylamino-6-(4-fluoro-phenyl)-pyrido[3,2-d]pyrimidin-2-ylamino]-methyl}-benzenesulfonamide]
[1]; Hepatitis C virus, Huh-7, 72 h
  EC50: < 0.1 µM
[3]
  CC50 at 3 days: < 5 µM

## Fc1ccc(CNc2nc(N[C@@H]3CCOC3)c3nc(-c4ccc(F)cc4)ccc3n2)cc1 [Example 298, N2-(4-Fluoro-benzyl)-6-(4-fluoro-phenyl)-N4-(tetrahydro-furan-3-yl)-pyrido[3,2-d]pyrimidine-2,4-diamine]
[1]; Hepatitis C virus, Huh-7, 72 h
  EC50: < 0.1 µM
[3]
  CC50 at 3 days: 5 to 25 µM

## CS(=O)(=O)CCNc1nc(NCc2ccc(F)cc2)nc2ccc(-c3ccc(F)cc3)nc12 [Example 299, N2-(4-Fluoro-benzyl)-6-(4-fluoro-phenyl)-N4-(2-methanesulfonyl-ethyl)-pyrido[3,2-d]pyrimidine-2,4-diamine]
[1]; Hepatitis C virus, Huh-7, 72 h
  EC50: < 0.1 µM
[3]
  CC50 at 3 days: 5 to 25 µM

## CC1(Oc2nc(NCc3ccc(S(N)(=O)=O)cc3)nc3ccc(-c4ccc(F)cc4)nc23)CC1 [Example 301, 4-{[6-(4-Fluoro-phenyl)-4-(1-methyl-cyclopropoxy)-pyrido[3,2-d]pyrimidin-2-ylamino]-methyl}-benzenesulfonamide]
[1]; Hepatitis C virus, Huh-7, 72 h
  EC50: < 0.1 µM
[3]
  CC50 at 3 days: < 5 µM

## N#CC1(Nc2nc(NCc3ccc(S(N)(=O)=O)cc3)nc3ccc(-c4ccc(F)cc4)nc23)CC1 [Example 303, 4-{[4-(1-Cyano-cyclopropylamino)-6-(4-fluoro-phenyl)-pyrido[3,2-d]pyrimidin-2-ylamino]-methyl}-benzenesulfonamide]
[1]; Hepatitis C virus, Huh-7, 72 h
  EC50: < 0.1 µM
[3]
  CC50 at 3 days: 5 to 25 µM
